From patent US7132447B2, “Substance FKI-1083 and process for producing the same” (The Kitasato Institute, priority 2001, dated 2006)
Converted amounts (≈) assume the structure as drawn.

Tests used:
Mucor racemosus IF04581 = test: MIC by agar plate dilution method on nutrient agar medium; format: cell-based
Escherichia coli NIHJ = test: as above; format: cell-based
NADH-fumarate reductase = NADH-fumarate reductase inhibitory activity, Ascaris suum muscle mitochondria fraction, NADH absorption at 340 nm; format: biochemical; conditions: 37° C., pH 7.0, read-out: concentration showing 50% inhibition of NADH-fumarate reductase activity
Description: Ascaris suum muscle was homogenized in 120 mM sodium phosphate solution (pH 7.0) and centrifuged at 3000×g for 10 minutes to collect the supernatant solution. The solution was further centrifuged at 10000×g for 20 minutes to collect the precipitate. The precipitate was suspended in 120 mM sodium phosphate solution (pH 7.0) to prepare mitochondria fraction. 50% dimethyl sulfoxide solution of FKI-1083 substance 10 μl was added to 96 well microplate. 120 mM sodium phosphate solution (pH 7.0) 80 μl containing 0.35 mM NADH and 7.2 mM disodium fumarate was added thereto and preincubated at 37° C. for 5 minutes in the microplate reader ELX808 (Bio-Tek Industries Inc., the U.S.). Mitochondria fraction of Ascaris suum muscle 10 μl (0.3 mg protein) was added thereto, incubated at 37° C. for 10 minutes and measured absorption of NADH at 340 nm in every 15 seconds. A gradient of the decrease in absorption at 340 nm was assayed as NADH-fumarate reductase activity. […] Consequently, FKI-1083 substance can be expected as a composition for treatment or prevention of helminthiasis.

[1] = system: Staphylococcus aureus ATCC6538p; test: MIC by agar plate dilution method on nutrient agar medium; format: cell-based
[2] = system: Aspergillus niger ATCC6275; test: as above; format: cell-based
Artemia salina = test: Anthropodicidal activity, movement of nauplius larvae observed under microscope in 96 well plate; format: in vivo
Description: (§1) Methanol solution of FKI-1083 substance of the present invention was added to a 96 well plate (Corning Inc., the U.S.). […] A test medium (lecithin 0.01%, sodium hydrogen carbonate 7.5 mM, potassium chloride 7.5 mM, calcium chloride dihydrate 7.5 mM, and magnesium sulfate heptahydrate 7.5 mM) 250 μl was added thereto and shaken for 15 minutes. Approximately 10 Caenorhabditis elegans cultured on the agar medium for nematode growth [a medium in which E. coli was cultured on a medium consisting of bactoagar (DIFCO Inc., the U.S.) 1.7%, bactopeptone (DIFCO Inc., the U.S.) 0.5%, yeast extract (DIFCO Inc., the U.S.) 1.0%, sodium chloride 0.3%, cholesterol 0.0005%, calcium chloride 0.007%, magnesium sulfate 0.03%, dipotassium hydrogen phosphate 0.34%, and potassium dihydrogen phosphate 0.11%] were added thereto. Separately, a buffer solution 50 μl containing several numbers of nauplius larvae of Artemia salina hatched in the buffer (Tris 0.24%, sodium chloride 2.57%, magnesium chloride 0.47%, potassium chloride 0.07%, sodium carbonate 0.02%, magnesium sulfate 0.64% and calcium chloride 0.11%, pH 7.1) was added. Conditions of these nematode and arthropod were observed under microscope. […] Consequently, FKI-1083 substance of the present invention is useful as anthelmintic and insecticide.

[3] = system: Saccharomyces cerevisiae KF26; test: MIC by agar plate dilution method on nutrient agar medium; format: cell-based
From the text: Minimum inhibitory concentration (MIC) of FKI-1083 substance of the present invention against various microorganisms on nutrient agar medium by agar plate dilution method is shown in Table 3.

[4] = system: Xanthomonas campestris pv. oryzae KB88; test: microbe, parasite or virus in culture; format: cell-based
Caenorhabditis elegans = test: Nematocidal activity, movement observed under microscope in 96 well plate; format: in vivo
Description: as §1

[5] = system: Mycobacterium smegmatis ATCC607; test: MIC by agar plate dilution method on nutrient agar medium; format: cell-based; conditions: Mycolicibacterium smegmatis
[6] = system: Escherichia coli NIHJ JC-2 (IF012734); test: as above; format: cell-based; conditions: NIHJJC2
[7] = system: Pseudomonas aeruginosa IF03080; test: as above; format: cell-based
Candida albicans KF1 = test: as above; format: cell-based
[8] = system: Micrococcus luteus ATCC9341; test: as above; format: cell-based
[9] = system: Bacillus subtilis ATCC6633; test: as above; format: cell-based

## CCCCCCCC/C(C)=C/Cc1oc(OC)c(C)c(=O)c1C [FKI-1083 substance]
Mucor racemosus IF04581
  MIC: > 100 µg/mL
Escherichia coli NIHJ
  MIC: > 100 µg/mL
NADH-fumarate reductase
  IC50: 4.1 nM
[1]
  MIC: 6.25 µg/mL (≈ 19.5 µM)
[2]
  MIC: > 100 µg/mL
Artemia salina
  concentration at which movement was inhibited: 2 µg/mL
[3]
  MIC: > 100 µg/mL
[4]
  MIC: > 100 µg/mL
Caenorhabditis elegans
  concentration at which movement was inhibited: 20 µg/mL
[5]
  MIC: 12.5 µg/mL (≈ 39 µM)
[6]
  MIC: > 100 µg/mL
[7]
  MIC: > 100 µg/mL
Candida albicans KF1
  MIC: > 100 µg/mL
[8]
  MIC: 6.25 µg/mL (≈ 19.5 µM)
[9]
  MIC: 6.25 µg/mL (≈ 19.5 µM)
